Data: publication PMC4097363, “Trace amines inhibit insect odorant receptor function through antagonism of the co-receptor subunit” (F1000Research, 2014)
“Also recorded” adds a separate entry of the source.

Legend:
Agam\Orco+Agam\Or65 [1] = target: T1, Agam\Orco+Agam\Or65 (Anopheles gambiae, UniProt Q7QCC7); assay: Antagonism of OLC12 activation of heteromeric OR in Xenopus oocytes; assay type: cell-based; details: for IC50: read-out: IC 50 for inhibition of Agam\Orco+Agam\Or65 activation
Method: (§1) Follicle cells were removed by treatment with collagenase B (Boehringer Mannheim) for 2 hours at room temperature. Capped cRNA encoding each OR subunit was generated using mMessage mMachine kits (Ambion). For heteromeric ORs, 25 ng of cRNA encoding each OR subunit was injected into Stage V-VI Xenopus oocytes. For expression of Orco homomers, 50 ng of cRNA was injected. Oocytes were incubated at 18°C in Barth's saline (in mM: 88 NaCl, 1 KCl, 2.4 NaHCO 3, 0.3 CaNO 3, 0.41 CaCl 2, 0.82 MgSO 4, 15 HEPES, pH 7.6, and 150µg/ml ceftazidime) for 2–5 days prior to electrophysiological recording.
(§2) Odorant and Orco ligand induced currents were recorded under two-electrode voltage clamp, using an automated parallel electrophysiology system (OpusExpress 6000A, Molecular Devices). Oocytes were perfused with ND96 (in mM: 96 NaCl, 2 KCl, 1 CaCl 2, 1 MgCl 2, 5 HEPES, pH 7.5). Orco ligands were prepared as 50 or 100 mM stock solutions in DMSO and then diluted into ND96 on the day of the experiment. Odorants were prepared as 100 mM stock solutions in DMSO and then diluted into ND96. Unless otherwise noted, applications were for 60 sec at a flow rate of 1.0 ml/min, with extensive washing in ND96 at 4.6 ml/min between applications. Micropipettes were filled with 3 M KCl and had resistances of 0.2–2.0 MΩ. The holding potential was -70 mV. Current responses, filtered (4-pole, Bessel, low pass) at 20 Hz (-3 db) and sampled at 100 Hz, were captured and stored using OpusXpress 1.1 software (Molecular Devices).
To screen for agonist activity, oocytes were exposed to 30 sec applications of candidate compounds with 5 min washes between applications ( Figure 2A). For the concentration-response protocol ( Table 1), applications were for 20 sec at a flow rate of 1.65 ml/min. […]
Initial analysis of electrophysiological data was done using Clampfit 9.1 software (Molecular Devices). […] Statistical significance (p<0.05) was assessed using a two-tailed unpaired t test, an F test, or a one-way analysis of variance followed by the Dunnett's post-test, as appropriate.

Agam\Orco+Agam\Or65 [2] = target: T1, Agam\Orco+Agam\Or65; assay: Inhibition of odorant activation of heteromeric OR in Xenopus oocytes; assay type: cell-based; details: for IC50: IC 50 for inhibition of responses to eugenol; for inhibition of odorant activation of the OR: activated by 100nM eugenol, 10µM tryptamine or 100µM tyramine
Method: as §1, §2
(§3) To measure inhibition of odorant activation of heteromeric ORs ( Figures 4B, 4C, Figure 5B and Figure 6), oocytes were exposed to a 30 sec application of odorant followed by a 10 min wash. Oocytes were then exposed to a 90 sec application of tryptamine or tyramine, immediately followed by a 30 sec co-application of tryptamine or tyramine and odorant. The current response in the presence of antagonist candidate was compared to the preceding response to odorant alone and expressed as a percentage. […] For this reason, we then re-normalized antagonism data to the value obtained when the assay was run in the absence of antagonist candidate (sham). In the “sham” assay, oocytes were exposed to a 30 sec application of odorant followed by a 10 min wash and then exposed to a 90 sec application of ND96 (no antagonist candidate), immediately followed by a 30 sec application of odorant. The second odorant response was compared to the first response and expressed as a percentage. In Figure 4B, 4C, Figure 5B and Figure 6, the sham value for 100nM eugenol was 57 ± 3% (mean ± SEM, n = 3). In Figure 5B, the sham value for 10nM eugenol was 93 ± 4% (n = 4). In Figure 4B and C, the sham value for 1µM Z11-14:OAc was 82 ± 6% (n = 6) and the sham value for 150µM 2-phenylethanol was 92 ± 2% (n = 3). In Figure 6, the sham value for 3µM L-fenchone was 83 ± 1% (n = 3), the sham value for 40µM acetophenone was 92 ± 1% (n = 3), the sham value for 70µM geranyl acetate was 97 ± 1% (n = 3), the sham value for 10µM 6-methyl-5-hepten-2-one was 94 ± 2% (n = 3) and the sham value for 3µM 2-nonanone was 81 ± 1% (n = 3).
Initial analysis of electrophysiological data was done using Clampfit 9.1 software (Molecular Devices). Curve fitting and statistical analyses were done using Prism 5 (Graphpad). […]

Agam\Orco+Agam\Or31 = assay: as above; assay type: cell-based, Anopheles gambiae; details: activated by 70µM geranyl acetate; 10µM tryptamine or 100µM tyramine
Method: as §1, §2, §3

Agam\Orco+Agam\Or28 = assay: as above; assay type: cell-based, Anopheles gambiae; details: activated by 40µM acetophenone; 10µM tryptamine or 100µM tyramine
Method: as §1, §2, §3

Agam\Orco+Agam\Or27 = assay: as above; assay type: cell-based, Anopheles gambiae; details: activated by 3µM L-fenchone; 10µM tryptamine or 100µM tyramine
Method: as §1, §2, §3

T1 sequence (Q7QCC7 whole entry): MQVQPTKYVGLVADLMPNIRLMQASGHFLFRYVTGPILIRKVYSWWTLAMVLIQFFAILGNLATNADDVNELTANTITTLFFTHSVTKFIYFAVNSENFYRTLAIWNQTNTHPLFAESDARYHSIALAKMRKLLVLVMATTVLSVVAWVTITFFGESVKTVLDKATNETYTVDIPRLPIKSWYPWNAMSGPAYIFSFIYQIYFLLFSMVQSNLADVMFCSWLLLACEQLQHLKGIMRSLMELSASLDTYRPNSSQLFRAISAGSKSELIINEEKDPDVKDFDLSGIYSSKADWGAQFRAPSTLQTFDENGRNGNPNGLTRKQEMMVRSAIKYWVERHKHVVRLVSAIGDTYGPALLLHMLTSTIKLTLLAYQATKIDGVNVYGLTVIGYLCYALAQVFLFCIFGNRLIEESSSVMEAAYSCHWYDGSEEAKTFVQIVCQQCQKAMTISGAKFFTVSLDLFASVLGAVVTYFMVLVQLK

NCCc1c[nH]c2ccccc12 [tryptamine]
mechanism of inhibition of OLC12 activation (Agam\Orco+Agam\Or65 [1]; Agam\Orco+Agam\Or65, 20µM vs 100µM OLC12): competitively inhibits OLC12 activation
IC50 (Agam\Orco+Agam\Or65 [1]; activated by 20µM OLC12): 2.9 ± 0.5 µM
IC50 (Agam\Orco+Agam\Or65 [1]; activated by 100µM OLC12): 8.5 ± 1.1 µM
mechanism of inhibition of odorant activation (Agam\Orco+Agam\Or65 [2]; Agam\Orco+Agam\Or65, 10nM vs 100nM eugenol): non-competitively inhibits odorant activation
IC50 (Agam\Orco+Agam\Or65 [2]; Agam\Orco+Agam\Or65, 10nM eugenol): 3.1 ± 0.4 µM
IC50 (Agam\Orco+Agam\Or65 [2]; Agam\Orco+Agam\Or65, 100nM eugenol): 3.2 ± 0.3 µM
inhibition of odorant activation of the OR (Agam\Orco+Agam\Or65 [2]): substantial inhibition of each receptor; also recorded: able to inhibit odorant activation of the receptor
inhibition of odorant activation of the OR (Agam\Orco+Agam\Or31): able to inhibit odorant activation of the receptor
inhibition of odorant activation of the OR (Agam\Orco+Agam\Or28): able to inhibit odorant activation of the receptor
inhibition of odorant activation of the OR (Agam\Orco+Agam\Or27): able to inhibit odorant activation of the receptor

NCCc1ccc(O)cc1 [tyramine]
inhibition of odorant activation of the OR (Agam\Orco+Agam\Or65 [2]): able to reduce odorant activation of these ORs, but was less effective than tryptamine; also recorded: able to inhibit odorant activation of each of these receptors, but was less effective than tryptamine
inhibition of odorant activation of the OR (Agam\Orco+Agam\Or31): able to inhibit odorant activation of each of these receptors, but was less effective than tryptamine
inhibition of odorant activation of the OR (Agam\Orco+Agam\Or28): able to inhibit odorant activation of each of these receptors, but was less effective than tryptamine
inhibition of odorant activation of the OR (Agam\Orco+Agam\Or27): able to inhibit odorant activation of each of these receptors, but was less effective than tryptamine
